# Key:
# PLA2G15 = target: T1, PLA2G15 (Cricetulus griseus, UniProt G3HKV9); experiment: PLA2G15 inhibition study: fosinopril spiked in DP2 material, PS20 HPLC-CAD subspecies method; type: biochemical; settings: room temperature in dark for two weeks
# T1 construct: PLA2 in the liquid compositions described herein is derived from a CHO cell line; endogenous in cells; host or cells: CHO cells expressing risankizumab (host-cell protein carried into drug substance/drug product)
# T1 sequence (G3HKV9 34-412): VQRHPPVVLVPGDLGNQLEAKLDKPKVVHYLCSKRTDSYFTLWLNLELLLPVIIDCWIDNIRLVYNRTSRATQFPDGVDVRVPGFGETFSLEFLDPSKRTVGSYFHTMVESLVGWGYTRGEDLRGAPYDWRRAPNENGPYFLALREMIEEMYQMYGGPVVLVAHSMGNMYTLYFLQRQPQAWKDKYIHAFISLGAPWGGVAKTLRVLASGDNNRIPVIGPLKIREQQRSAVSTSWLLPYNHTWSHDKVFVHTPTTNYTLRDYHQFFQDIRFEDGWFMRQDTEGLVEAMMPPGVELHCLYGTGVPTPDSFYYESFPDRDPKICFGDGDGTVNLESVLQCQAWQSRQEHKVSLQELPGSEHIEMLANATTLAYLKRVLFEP
# Protocol: Fosinopril is an angiotensin converting enzyme (ACE) inhibitor, which is been used to treat hypertension and some types of chronic heart failure (Murdoch et al. (1992) Drugs 43:123-140). […] All samples (including non-spiked samples) were incubated at room temperature in the dark for two weeks. PS20 degradation levels in those samples were tested with a PS20 subspecies method. PS20 degradation levels in those samples were compared with negative controls (non-spiked samples kept at room temperature in dark for two weeks) and positive controls (non-spiked samples kept at −80° C. before testing). […] The chemical structure of fosinopril is shown below.
# Fosinopril sodium was dissolved in Mill-Q water at a concentration of 0.5 mg/mL. The solution was aseptically filtered with a 0.22 syringe filter before use. During the filtration, the syringe filter was flushed with Mill-Q water and then with the 0.5 mg/mL fosinopril water solution. Lower concentrations of fosinopril water solutions were aseptically diluted with Mill-Q water. More detailed sample preparation can be found in Table 22. All vials were glass vials, and solutions were well mixed before incubation. Samples were incubated at room temperature in dark for two weeks before testing.
# A PS20 HPLC-CAD subspecies method was used to test the PS20 levels qualitatively as well as profiles in all samples. Solutions were transferred to HPLC vials and diluted with Milli-Q water (1:1 dilution). All HPLC vials were mixed well before placed in an HPLC autosampler for testing. Sample descriptions and labels can be found in Table 23.
# [1] = target: T2, PLA2G15 (Phospholipase A2 Group XV) (Homo sapiens, UniProt Q8NCC3); settings: Hinkovska-Galcheva et al. (2021); read-out: IC50, inhibition of PLA2G15 activity; cited from earlier work
# T2 sequence (Q8NCC3 34-412): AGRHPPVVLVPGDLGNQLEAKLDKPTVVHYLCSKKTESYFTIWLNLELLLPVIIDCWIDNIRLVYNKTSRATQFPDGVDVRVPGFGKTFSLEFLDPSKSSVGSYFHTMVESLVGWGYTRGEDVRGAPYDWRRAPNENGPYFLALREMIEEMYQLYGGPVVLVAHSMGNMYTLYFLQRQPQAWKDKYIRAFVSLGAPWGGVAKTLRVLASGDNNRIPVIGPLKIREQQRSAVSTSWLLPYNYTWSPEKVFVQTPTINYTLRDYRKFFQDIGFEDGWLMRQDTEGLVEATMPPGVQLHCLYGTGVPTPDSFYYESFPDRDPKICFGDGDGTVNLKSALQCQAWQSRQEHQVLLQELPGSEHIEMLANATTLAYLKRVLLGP
structure (smiles),measurement,setting,value
CCC(=O)O[C@@H](O[P@](=O)(CCCCc1ccccc1)CC(=O)N1C[C@H](C2CCCCC2)C[C@H]1C(=O)O)C(C)C [fosinopril],protection (inhibition) of PS20 degradation in the DP2 material,"PLA2G15; 0.9 μg/mL spiking level, vs non-spiked control",reduction of PS20 degradation has been observed
same,protection (inhibition) of PS20 degradation in the DP2 material,"PLA2G15; 0.9 μg/mL spiking level, vs non-spiked control, listed as Fosinopril",showed protection (inhibition)
same,protection (inhibition) of PS20 degradation in the DP2 material,PLA2G15; 0.9-83.3 ug/mL spiked,Dose (concentration) dependent protection (inhibition)
same,protection (inhibition) of PS20 degradation in the DP2 material,"PLA2G15; 0.9-83.3 ug/mL spiked, listed as Fosinopril",dose dependent protection (inhibition)
same,IC50,[1],~180 nM

# From patent publication US20250313619A1, “RISANKIZUMAB COMPOSITIONS” (ABBVIE INC., priority 0001, published 2025)
